# Assay results published in US9321760B2 (Merck Patent GmbH, priority 2011, dated 2016).
# Molecular target: P70S6K (T412E mutant) (Homo sapiens (Human), UniProt P23443, T412E)
# Assay: P70S6K enzyme assay
# Format: biochemical
# Settings: 3 nM P70S6K T412E mutant, 24 μM ATP, 1 μM FITC-AHA-AKRRRLSSLRA-OH substrate peptide, 90 min at 25° C.
# Procedure, shortened: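 IC50s come from mobility-shift separation of phospho-product from FITC-AHA-AKRRRLSSLRA-OH substrate (1 μM) after the reaction was quenched with 10 mM EDTA. The reaction used 3 nM T412E-mutant enzyme and 24 μM ATP, running 90 min at 25° C in 100 mM Hepes pH 7.5 buffer.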
# P70S6K (T412E mutant), sequence (P23443 whole entry T412E): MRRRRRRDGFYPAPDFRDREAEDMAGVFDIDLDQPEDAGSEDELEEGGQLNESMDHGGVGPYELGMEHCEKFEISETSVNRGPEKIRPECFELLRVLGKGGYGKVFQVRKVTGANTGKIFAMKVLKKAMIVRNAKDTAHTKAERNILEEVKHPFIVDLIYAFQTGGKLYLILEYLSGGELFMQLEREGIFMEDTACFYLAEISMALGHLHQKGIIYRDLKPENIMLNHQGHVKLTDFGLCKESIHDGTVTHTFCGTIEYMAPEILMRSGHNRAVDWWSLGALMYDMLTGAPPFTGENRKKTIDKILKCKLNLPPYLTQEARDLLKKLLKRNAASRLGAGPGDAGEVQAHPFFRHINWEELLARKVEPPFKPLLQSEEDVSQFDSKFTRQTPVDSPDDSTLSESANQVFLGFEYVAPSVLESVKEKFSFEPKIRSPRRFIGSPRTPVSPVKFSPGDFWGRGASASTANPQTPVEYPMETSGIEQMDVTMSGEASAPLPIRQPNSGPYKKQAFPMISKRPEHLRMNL
row,SMILES,IC50
1,"Cc1ccc([C@H](CCO)NC(=O)C2(N)CCN(c3ncnc(N)c3C#N)CC2)cc1 [Example 227, 4-Amino-1-(6-amino-5-cyano-pyrimidin-4-yl)-piperidine-4-carboxylic acid ((S)-3-hydroxy-1-p-tolyl-propyl)-amide]",280 nM
2,"Nc1ncnc(N2CCC(N)(C(=O)N[C@@H](CCO)c3ccccc3)CC2)c1Cl [Example 228, 4-Amino-1-(6-amino-5-chloro-pyrimidin-4-yl)-piperidine-4-carboxylic acid ((S)-3-hydroxy-1-phenyl-propyl)-amide]",2800 nM
3,"COc1ccc([C@H](CCO)NC(=O)C2(N)CCN(c3ncnc(N)c3C#N)CC2)cc1 [Example 229, 4-Amino-1-(6-amino-5-cyano-pyrimidin-4-yl)-piperidine-4-carboxylic acid [(S)-3-hydroxy-1-(4-methoxy-phenyl)-propyl]-amide]",450 nM
4,"N#Cc1c(N)ncnc1N1CCC(N)(C(=O)N[C@@H](CCO)c2ccc(C(F)(F)F)cc2)CC1 [Example 230, 4-Amino-1-(6-amino-5-cyano-pyrimidin-4-yl)-piperidine-4-carboxylic acid [(S)-3-hydroxy-1-(4-trifluoromethyl-phenyl)-propyl]-amide]",18000 nM
5,"N#Cc1c(N)ncnc1N1CCC(N)(C(=O)N[C@@H](CCO)c2ccncc2)CC1 [Example 231, 4-Amino-1-(6-amino-5-cyano-pyrimidin-4-yl)-piperidine-4-carboxylic acid ((S)-3-hydroxy-1-pyridin-4-yl-propyl)-amide]",3600 nM
6,"Cc1ccc([C@H](CCO)NC(=O)C2(N)CCN(c3ncnc(N)c3C(N)=O)CC2)cc1 [Example 232, 4-Amino-6-[4-amino-4-((S)-3-hydroxy-1-p-tolyl-propylcarbamoyl)-piperidin-1-yl]-pyrimidine-5-carboxylic acid amide]",23000 nM
7,"NC(=O)c1c(N)ncnc1N1CCC(N)(C(=O)N[C@@H](CCO)c2ccc(C(F)(F)F)cc2)CC1 [Example 233, 4-Amino-6-{4-amino-4-[(S)-3-hydroxy-1-(4-trifluoromethyl-phenyl)-propylcarbamoyl]-piperidin-1-yl}-pyrimidine-5-carboxylic acid amide]",41000 nM
8,"COC[C@H](NC(=O)C1(N)CCN(c2ncnc(N)c2Cl)CC1)c1ccc(Cl)cc1 [Example 234, 4-Amino-1-(6-amino-5-chloro-pyrimidin-4-yl)-piperidine-4-carboxylic acid [(R)-1-(4-chloro-phenyl)-2-methoxy-ethyl]-amide]",560 nM

# The remaining lines, values ahead:
row,IC50,SMILES
1,250 nM,"Nc1ncnc(N2CCC(N)(C(=O)N[C@@H](CCO)c3ccc(Cl)cc3)CC2)c1Cl [Example 235, 4-Amino-1-(6-amino-5-chloro-pyrimidin-4-yl)-piperidine-4-carboxylic acid [(S)-1-(4-chloro-phenyl)-3-hydroxy-propyl]-amide]"
2,900 nM,"Nc1ncnc(N2CCC(N)(C(=O)N[C@@H](CCO)c3ccc(F)cc3)CC2)c1Cl [Example 236, 4-Amino-1-(6-amino-5-chloro-pyrimidin-4-yl)-piperidine-4-carboxylic acid [(S)-1-(4-fluoro-phenyl)-3-hydroxy-propyl]-amide]"
3,860 nM,"Cc1ccc([C@H](CCO)NC(=O)C2(N)CCN(c3ncnc(N)c3Cl)CC2)cc1 [Example 237, 4-Amino-1-(6-amino-5-chloro-pyrimidin-4-yl)-piperidine-4-carboxylic acid ((S)-3-hydroxy-1-p-tolyl-propyl)-amide]"
4,380 nM,"COc1ccc([C@H](CCO)NC(=O)C2(N)CCN(c3ncnc(N)c3Cl)CC2)cc1 [Example 238, 4-Amino-1-(6-amino-5-chloro-pyrimidin-4-yl)-piperidine-4-carboxylic acid [(S)-3-hydroxy-1-(4-methoxy-phenyl)-propyl]-amide]"
5,7200 nM,"Nc1ncnc(N2CCC(N)(C(=O)N[C@@H](CCO)c3ccncc3)CC2)c1Cl [Example 239, 4-Amino-1-(6-amino-5-chloro-pyrimidin-4-yl)-piperidine-4-carboxylic acid ((S)-3-hydroxy-1-pyridin-4-yl-propyl)-amide]"
